In US20230270745A1 (Seagen Inc., priority 2020, published 2023):

Key:
[1] = test system: Calu-3 cells; assay: Response of Calu-3 cells to tucatinib in vitro; type: cell-based; settings: previously demonstrated
[2] = test system: GXA 3039 HER2 positive gastric cancer PDX model; assay: GXA 3039 gastric cancer PDX model, tumor growth inhibition; type: in vivo, Mice; settings: study day 29; tucatinib 50 mg/kg orally twice per day, trastuzumab 20 mg/kg intraperitoneally once every three days
Experimental: (§1) The TGI index is calculated for a particular time point (e.g., a specific number of days into an experiment or clinical trial) according to the following formula: […]
(§2) where “Tx Day 0” denotes the first day that treatment is administered (i.e., the first day that an experimental therapy or a control therapy (e.g., vehicle only) is administered) and “Tx Day X” denotes X number of days after Day 0. […] As a non-limiting example, in an experiment where study day 0 corresponds to “Tx Day 0” and the TGI index is calculated on study day 28 (i.e., “Tx Day 28”), if the mean tumor volume in both groups on study day 0 is 250 mm^3 and the mean tumor volumes in the experimental and control groups are 125 mm^3 and 750 mm^3, respectively, then the TGI index on day 28 is 125%.
(§3) Tucatinib was administered orally at a dose of 50 mg/kg twice per day for 28 days (study days 0-27). […] A vehicle-only group was included as a negative control.

[3] = test system: GXA 3054 HER2 positive gastric cancer PDX model; assay: GXA 3054 gastric cancer PDX model, tumor growth inhibition; type: in vivo, Mice; settings: study day 17; tucatinib 50 mg/kg orally twice per day, trastuzumab 20 mg/kg intraperitoneally once every three days
Experimental: as §1, §2, §3

[4] = test system: GXA 3038 HER2 positive gastric cancer PDX model; assay: GXA 3038 gastric cancer PDX model, tumor growth inhibition; type: in vivo, Mice; settings: study day 28; tucatinib 50 mg/kg orally twice per day, trastuzumab 20 mg/kg intraperitoneally once every three days
Experimental: as §1, §2, §3

[5] = test system: CTG-0383 HER2 positive CRC PDX model; assay: CTG-0383 CRC PDX model, tumor growth inhibition; type: in vivo, Mice; settings: study day 29; tucatinib 50 mg/kg orally twice per day, trastuzumab 20 mg/kg intraperitoneally once every three days
Experimental: as §1, §2, §3

[6] = test system: CTG-0121 HER2 positive CRC PDX model; assay: CTG-0121 CRC PDX model, tumor growth inhibition; type: in vivo, Mice; settings: study day 29; tucatinib 50 mg/kg orally twice per day, trastuzumab 20 mg/kg intraperitoneally once every three days
Experimental: as §1, §2, §3

[7] = test system: NCI-H2170 NSCLC xenograft model; assay: NCI-H2170 NSCLC xenograft model, tumor growth inhibition; type: in vivo, Mice; settings: study day 39; tucatinib 50 mg/kg orally twice per day for 21 days, trastuzumab 20 mg/kg intraperitoneally twice per week, from study day 18
Experimental: as §1, §2
(§4) For the Calu-3 study, tucatinib was administered orally at a dose of 50 mg/kg twice per day for 21 days, beginning on study day 7. […] A vehicle-only group was included as a negative control.
For the NCI-H2170 study, tucatinib was administered orally at a dose of 50 mg/kg twice per day for 21 days, beginning on study day 18. […] A vehicle-only group was included as a negative control.

[8] = test system: NCI-H2170 cells; assay: Response of NCI-H2170 cells to tucatinib in vitro; type: cell-based; settings: previously demonstrated
[9] = test system: CTG-0138 HER2 positive esophageal cancer PDX model; assay: CTG-0138 esophageal cancer PDX model, tumor growth inhibition; type: in vivo, Mice; settings: study day 30; tucatinib 50 mg/kg orally twice per day, trastuzumab 20 mg/kg intraperitoneally once every three days
Experimental: as §1, §2, §3

[10] = test system: CTG-0927 HER2 positive cholangiocarcinoma PDX model; assay: CTG-0927 cholangiocarcinoma PDX model, tumor growth inhibition; type: in vivo, Mice; settings: study day 28; tucatinib 50 mg/kg orally twice per day, trastuzumab 20 mg/kg intraperitoneally once every three days
Experimental: as §1, §2, §3

[11] = test system: Calu-3 NSCLC xenograft model; assay: Calu-3 NSCLC xenograft model, tumor growth inhibition; type: in vivo, Mice; settings: study day 28; tucatinib 50 mg/kg orally twice per day for 21 days, trastuzumab 20 mg/kg intraperitoneally once every three days, from study day 7
Experimental: as §1, §2, §4

[12] = test system: CTG-0137 HER2 positive esophageal cancer PDX model; assay: CTG-0137 esophageal cancer PDX model, tumor growth inhibition; type: in vivo, Mice; settings: study day 15; tucatinib 50 mg/kg orally twice per day, trastuzumab 20 mg/kg intraperitoneally once every three days
Experimental: as §1, §2, §3

[13] = test system: CTG-0784 HER2 positive CRC PDX model; assay: CTG-0784 CRC PDX model, tumor growth inhibition; type: in vivo, Mice; settings: study day 29; tucatinib 50 mg/kg orally twice per day, trastuzumab 20 mg/kg intraperitoneally once every three days
Experimental: as §1, §2, §3

For `Cc1cc(Nc2ncnc3ccc(NC4=NC(C)(C)CO4)cc23)ccc1Oc1ccn2ncnc2c1` [Tucatinib, tucatinib], the “Response to tucatinib in vitro” value [1] was “good responses”, the “Observed TGI (tumor growth inhibition index)” value [2] was 48% and the “Observed TGI (tumor growth inhibition index)” value [3] was 65%. For the same molecule, the “Observed TGI (tumor growth inhibition index)” value [4] was 110%, the “Observed TGI (tumor growth inhibition index)” value [5] was 117% and the “Observed TGI (tumor growth inhibition index)” value [6] was 104%. For the same molecule, the “Observed TGI (tumor growth inhibition index)” value [7] was 91%, the “Response to tucatinib in vitro” value [8] was “good responses” and the “Observed TGI (tumor growth inhibition index)” value [9] was 69%. For the same molecule, the “Observed TGI (tumor growth inhibition index)” value [10] was 48%, the “Observed TGI (tumor growth inhibition index)” value [11] was 63% and the “Observed TGI (tumor growth inhibition index)” value [12] was 49%. The “Observed TGI (tumor growth inhibition index)” value [13] was 50%.
